# Source: patent US20250144067A1, “PERSONALIZED STARVATION THERAPY FOR CANCER” (Faeth Therapeutics, Inc., priority 2021, published 2025)
# Read-outs that look alike come from different tables or passages of the source.
# Tests used:
# [1] = system: NCI-H292 lung cancer cells; experiment: FDA drug screening, complete media vs cholesterol-free media without statin (TABLE 1); format: cell-based, human
# [2] = system: NCI-H292 lung cancer cells; experiment: FDA drug screening, complete media vs cholesterol-free media with simvastatin (TABLE 2); format: cell-based, human
# [3] = Complete minus Cholesterol-free, […]
# [4] = NCI-H292 cells, FDA drug library screen, cholesterol-free media without statin
# [5] = NCI-H292 cells, FDA drug library screen, complete media
# [6] = NCI-H292 cells, cholesterol-free media with simvastatin 0.04 μM, FDA drug library screen (TABLE 2)
# [7] = NCI-H292 cells, complete media, FDA drug library screen (TABLE 2)
# [8] = complete media minus cholesterol-free media + simvastatin (0.04 μM), […]
# [9] = Complete minus Cholesterol-free, >0 enhanced anti-cancer activity, about 0 neutral, <0 antagonist
# [10] = NCI-H292 cells, cholesterol-free media without statin, FDA drug library screen
# [11] = NCI-H292 cells, complete media, FDA drug library screen
# [12] = complete media minus cholesterol-free media + simvastatin (0.04 μM), >0 enhanced anti-cancer activity, about 0 neutral, <0 antagonist
# [13] = NCI-H292 cells, FDA drug library screen, cholesterol-free media with simvastatin 0.04 μM
# [14] = complete media vs cholesterol-free media + simvastatin (0.04 μM), >0 enhanced anti-cancer activity, about 0 neutral, <0 antagonist
# [15] = NCI-H292 cells, drug in cholesterol-free media with simvastatin 0.04 μM
# [16] = NCI-H292 cells, drug in complete media
# [17] = Complete minus Cholesterol-free, greater than 0 enhanced anti-cancer activity, about 0 neutral, below 0 antagonists
# [18] = NCI-H292 cells in complete media
# [19] = NCI-H292 cells in cholesterol-free media without statin
# [20] = NCI-H292 cells, cholesterol-free media without statin
compound,measurement,setting,value
CN1[C@H]2C[C@H](OC(=O)[C@H](CO)c3ccccc3)C[C@@H]1[C@@H](O)C2 (racemic) [Racanisodamine],Difference,[1]; [3],−0.15
same,Cholesterol-free,[1]; [4],1.184
same,Complete,[1]; [5],1.034
same,Cholesterol-free media + simvastatin (0.04 μM),[2]; [6],0.9483
same,Complete Media,[2]; [7],0.9207
same,Difference,[2]; [8],−0.03
NC[C@H](O)c1ccc(O)c(O)c1 [Norepinephrine],Difference,[1]; [9],−0.02
same,Cholesterol-free,[1]; [10],0.981
same,Complete,[1]; [11],0.9634
same,Cholesterol-free media + simvastatin (0.04 μM),[2]; [6],0.9481
same,Complete Media,[2]; [7],0.884
same,Difference,[2]; [12],−0.06
C=CC(=O)N1CCC[C@@H](n2nc(-c3ccc(Oc4ccccc4)cc3)c3c(N)ncnc32)C1 [Ibrutinib],Difference,[1]; [9],−0.07
same,Cholesterol-free,[1]; [10],0.4459
same,Complete,[1]; [11],0.3765
same,Cholesterol-free media + simvastatin (0.04 μM),[2]; [13],0.5962
same,Complete Media,[2]; [5],0.4594
same,Difference,[2]; [14],−0.14
Ketanserin (tartrate),Difference,[1]; [9],0.03
same,Cholesterol-free,[1]; [10],0.9853
same,Complete,[1]; [11],1.019
same,Cholesterol-free media + simvastatin (0.04 μM),[2]; [15],1.267
same,Difference,[2]; [14],−0.22
Cc1cn([C@H]2C=C[C@@H](CO)O2)c(=O)[nH]c1=O [Stavudine],Difference,"[1]; Complete minus Cholesterol-free, greater than 0 enhanced anti-cancer activity, about 0 neutral, below 0 antagonist",−0.09
same,Cholesterol-free,[1]; [4],0.9921
same,Complete,[1]; [5],0.8994
same,Cholesterol-free media + simvastatin (0.04 μM),[2]; [15],1.022
same,Complete Media,[2]; [16],0.8293
same,Difference,[2]; [14],−0.19
Penbutolol (sulfate),Difference,[1]; [17],−0.71
same,Complete,[1]; [18],1.219
same,Cholesterol-free media + simvastatin (0.04 μM),[2]; [15],0.9562
same,Complete Media,[2]; [16],0.7448
same,Difference,[2]; [14],−0.21
CO[C@H]1C[C@H](O[C@@H]2/C(C)=C/C[C@@H]3C[C@@H](C[C@]4(CC[C@H](C)[C@@H](C5CCCCC5)O4)O3)OC(=O)[C@@H]3C=C(C)/C(=N/O)[C@H]4OC/C(=C\C=C\[C@@H]2C)[C@]43O)O[C@@H](C)[C@@H]1O [Selamectin],Cholesterol-free,[1],−0.000828
same,Complete,[1],−0.0121
same,Difference,[1],−0.01
same,Cholesterol-free media + simvastatin (0.04 μM),[2],0.0107
same,Complete Media,[2],0.03346
same,Difference,[2],0.02
COc1ccc2c(c1O)-c1c(OC)c(OC)cc3c1[C@H](C2)N(C)CC3 [Isocorydine],Difference,[1]; [3],−0.17
same,Cholesterol-free,[1]; [4],1.162
same,Complete,[1]; [5],0.9961
same,Cholesterol-free media + simvastatin (0.04 μM),[2]; [6],1.273
same,Complete Media,[2]; [7],1.214
same,Difference,[2]; [8],−0.06
CCCCCCCCCCCCCCCCCCOCC(O)CO (stereo not drawn) [Batilol],Difference,[1]; [17],−0.55
same,Cholesterol-free,[1]; [19],1.321
same,Complete,[1]; [18],0.7704
same,Cholesterol-free media + simvastatin (0.04 μM),[2]; [6],0.9215
same,Complete Media,[2]; [7],0.9293
same,Difference,[2]; [12],0.01
N#Cc1cc(NC(=O)C(=O)O)c(Cl)c(NC(=O)C(=O)O)c1 [Lodoxamide],Difference,[1]; [9],−0.26
same,Cholesterol-free,[1]; [20],1.144
same,Complete,"[1]; NCI-H292 cells, complete media",0.8858
same,Cholesterol-free media + simvastatin (0.04 μM),[2]; [15],1.021
same,Complete Media,[2]; [16],0.7589
same,Difference,[2]; [14],−0.26
CCCCCCCCc1ccc(CCC(N)(CO)CO)cc1 [Fingolimod],Difference,[1]; [17],−0.48
same,Cholesterol-free,[1]; [19],1.481
same,Complete,[1]; [18],0.9982
same,Cholesterol-free media + simvastatin (0.04 μM),[2]; [13],1.233
same,Complete Media,[2]; [5],1.097
same,Difference,[2]; [14],−0.14
COC(=O)c1cc(OC)c2c(c1-c1c(C(=O)OC)cc(OC)c3c1OCO3)OCO2 [Bifendate],Cholesterol-free,[1]; [20],1.494
same,Complete,"[1]; NCI-H292 cells, complete media",1.156
same,Difference,"[1]; complete vs cholesterol-free media, […]",−0.34
same,Cholesterol-free media + simvastatin (0.04 μM),[2]; [13],1.269
same,Difference,"[2]; complete media vs cholesterol-free media + simvastatin (0.04 μM), […]",−0.10
CCCC(=O)Nc1ncnc2c1ncn2[C@@H]1O[C@@H]2COP(=O)(O)O[C@H]2[C@H]1OC(=O)CCC [Bucladesine (sodium)],Difference,[1]; [9],−0.23
same,Cholesterol-free,[1]; [20],1.11
same,Complete,"[1]; NCI-H292 cells, complete media",0.8768
same,Cholesterol-free media + simvastatin (0.04 μM),[2]; [15],1.094
same,Complete Media,[2]; [16],0.8977
same,Difference,[2]; [14],−0.20
CC(=O)c1c(C)c2cnc(Nc3ccc(N4CCNCC4)cn3)nc2n(C2CCCC2)c1=O.O=S(=O)(O)CCO [Palbociclib (isethionate)],Difference,[1]; [9],−0.25
same,Cholesterol-free,[1]; [20],0.905
same,Complete,"[1]; NCI-H292 cells, complete media",0.6502
same,Cholesterol-free media + simvastatin (0.04 μM),[2]; [6],0.7514
same,Complete Media,[2]; [7],0.6914
same,Difference,[2]; [12],−0.06
